Laboratory results reported in US10188743B2, “Cytisine-linked isoflavonoid antineoplastic agents for the treatment of cancer” (UNIVERSITY OF KENTUCKY RESEARCH FOUNDATION, priority 2016, dated 2019).

Target: T1, α,β-dehydrogenase activity of HSD17B4 (Homo sapiens, UniProt P51659)
T1 construct: His-tag; made in house; host or cells: E. coli BL21 (pET28)
T1 sequence (P51659 1-736): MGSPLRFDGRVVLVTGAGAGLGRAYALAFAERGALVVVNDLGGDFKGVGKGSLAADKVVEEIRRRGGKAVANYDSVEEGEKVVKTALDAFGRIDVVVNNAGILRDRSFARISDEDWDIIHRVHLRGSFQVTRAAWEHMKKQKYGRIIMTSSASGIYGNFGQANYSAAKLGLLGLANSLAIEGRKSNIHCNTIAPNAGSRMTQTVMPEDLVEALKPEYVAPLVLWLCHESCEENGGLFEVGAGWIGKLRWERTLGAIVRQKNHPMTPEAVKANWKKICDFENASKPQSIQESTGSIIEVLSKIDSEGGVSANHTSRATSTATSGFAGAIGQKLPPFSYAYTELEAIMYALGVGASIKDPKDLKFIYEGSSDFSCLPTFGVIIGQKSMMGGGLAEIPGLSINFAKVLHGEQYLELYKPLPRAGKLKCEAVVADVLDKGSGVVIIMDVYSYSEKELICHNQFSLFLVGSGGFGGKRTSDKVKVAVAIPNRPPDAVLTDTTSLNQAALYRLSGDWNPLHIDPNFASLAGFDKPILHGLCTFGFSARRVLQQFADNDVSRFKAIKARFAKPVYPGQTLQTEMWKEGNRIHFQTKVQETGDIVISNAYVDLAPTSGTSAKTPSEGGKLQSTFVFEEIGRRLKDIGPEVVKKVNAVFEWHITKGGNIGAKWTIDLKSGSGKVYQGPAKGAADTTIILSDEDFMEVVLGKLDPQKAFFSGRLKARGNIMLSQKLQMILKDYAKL
Assay: HSD17B4 dehydrogenase assay (NADH readout)
Assay type: biochemical
Description: We acquired further evidence along these lines through studies using the N-terminal α,β-dehydrogenase and C-terminal hydratase fragments of HSD17B4 as well as the full-length protein. We evaluated the α,β-dehydrogenase activity using DL-3-hydroxylbutyryl-CoA as a substrate and the conversion of NAD^+ to NADH as a readout. We concomitantly measured the hydratase activity using crotonoyl-CoA as a substrate and the diminished ultraviolet absorption of the α,β-unsaturated thioester chromophore as readout. The full-length protein, as expected, had both enzyme activities (FIGS. 7A and 7B). The C-terminal-truncated fragments N318 and N634 but not the N-terminal-truncation fragment C919 had α,β-dehydrogenase activity (FIG. 7A). The C-terminal fragment N634 and the N-terminal fragment C919, but not the C-terminal fragment N318, had hydratase activity (FIG. 7B), as summarized in FIG. 3A.
The enzymatic activities of HSD17B4 were analyzed using the method reported by Novikov et al. (J. Biol. Chem., 1994, 269, 27125). […] The reaction was quantified by measuring the fluorescent product NADH (excitation: 340 nm; emission 460 nm). […] The reaction was quantified by measuring the remaining substrate using absorbance at 280 nm.

## O=c1c(-c2ccc(Cl)cc2)coc2cc(OCCN3C[C@@H]4C[C@@H](C3)c3cccc(=O)n3C4)ccc12 [Compound 10c, (1 S,5S)-3-(2-((3-(4-chlorophenyl)-4-oxo-4H-chromen-7-yl)oxy)ethyl)-3,4,5,6-tetrahydro-1H-1,5-methanopyrido[1,2-a][1,5]diazocin-8(2H)-one]
  effect on α,β-dehydrogenase activity: no effect
